# US20260115186A1, “PIPERIDINE UREA DERIVATIVES FOR CANCER THERAPY” (NEUROPN THERAPEUTICS INC., priority 2022, published 2026)
# Tested on: adult zebrafish, paclitaxel induced nerve damage
# Experiment: Paclitaxel-induced peripheral neuropathy in adult zebrafish (tail fin stimulation)
# Assay type: in vivo
# Settings: 3 μL of 10-μM paclitaxel, four consecutive days (Days 2-5), FIG. 9
# Procedure: Method to evaluate potential of compounds of Formula 1 to reduce or block chemotherapy-induced peripheral neuropathy—Animal (zebrafish) model described below and in literature (Lisse T S et al PNAS 113 (15) E2189-E2198) was used to evaluate potential of compounds of Formula 1 to reduce or block neuronal damage induced by chemotherapeutics.
# To induce peripheral neuropathy in adult zebrafish, 3 μL of a 10-μM paclitaxel solution in 0.15% DMSO was administered with a 33 gauge Hamilton Syringe for a zebrafish with average ˜200 mg body weight. Fish were treated with vehicle alone or paclitaxel for four consecutive days (Days 2-5) or paclitaxel with Compound A (10- or 30 ng). Compound A was dosed orally by mixing with the fish feed pellets. Fishes were conditioned to consume three pellets a day. […] To prepare test compound infused pellet, a known quantity of the compound was mixed with the known quantity of the feed powder and were extruded in to 4 mg pellet containing the desired administration dose per pellet. Concentration of test compound dosed per fish were controlled by the number of pellets and the quantity of compound per pellet. […]
# To determine the peripheral nerve damage, fish were wrapped in plastic foil until calm, and the distal tail fin was stimulated with an insect pin until twitching of the fish was observed. Number of stimuli until twitch was recorded.
smiles,measurement,value
CC(=O)O[C@H]1C(=O)[C@@]2(C)[C@H]([C@H](OC(=O)c3ccccc3)[C@]3(O)C[C@H](OC(=O)[C@H](O)[C@@H](NC(=O)c4ccccc4)c4ccccc4)C(C)=C1C3(C)C)[C@]1(OC(C)=O)CO[C@@H]1C[C@@H]2O [paclitaxel],peripheral nerve damage (number of stimuli until twitch) compared to vehicle alone,significant nerve damage
